pIC50: −log10 of the molar value.
Assays:
[1] = target: T1, Danio rerio (zebrafish) DHFR (zDHFR) (Danio rerio, UniProt A0A8M1P929); test: […] HSQC NMR; format: binding
T1 sequence (A0A8M1P929 1-190): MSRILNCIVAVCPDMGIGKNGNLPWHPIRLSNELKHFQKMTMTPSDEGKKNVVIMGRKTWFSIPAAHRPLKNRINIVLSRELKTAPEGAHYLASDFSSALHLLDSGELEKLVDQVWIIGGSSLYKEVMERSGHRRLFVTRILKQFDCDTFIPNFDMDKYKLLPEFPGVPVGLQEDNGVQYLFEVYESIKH

[2] = target: E. coli dihydrofolate reductase (ecDHFR) (Escherichia coli, UniProt P0ABQ4); test: product inhibition of initial rate, absorbance at […] nm; format: biochemical
[3] = target: T2, human dihydrofolate reductase (hDHFR) (Homo sapiens, UniProt P00374); test: X-ray crystal structure; format: biochemical
T2 sequence (P00374 1-187): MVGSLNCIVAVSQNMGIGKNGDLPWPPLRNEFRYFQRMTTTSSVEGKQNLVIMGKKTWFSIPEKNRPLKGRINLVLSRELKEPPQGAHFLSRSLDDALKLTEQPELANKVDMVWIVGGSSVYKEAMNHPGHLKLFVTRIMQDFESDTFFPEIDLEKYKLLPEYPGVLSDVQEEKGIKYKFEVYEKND

[4] = target: E. coli dihydrofolate reductase (ecDHFR) N23PP S148A (Escherichia coli, UniProt P0ABQ4, INS23P/N23P/S148A); test: product inhibition of initial rate, absorbance at […] nm; format: biochemical

Nc1nc(=O)c2nc(CNc3ccc(C(=O)N[C@@H](CCC(=O)O)C(=O)O)cc3)cnc2[nH]1 [FOL, folic acid] was tested, and the “15N HSQC NMR” value [1] was “Each panel shows a superposition of E– NADP^+–FOL (model Michaelis complex, black) and E–NADP^+– THF”.

For NC(=O)c1ccc[n+]([C@@H]2O[C@H](COP(=O)(O)OP(=O)(O)OC[C@H]3O[C@@H](n4cnc5c(N)ncnc54)[C@H](OP(=O)(O)O)[C@@H]3O)[C@@H](O)[C@H]2O)c1 [NADP+, NADP^+], the pIC50 [2] was 2.19, the pIC50 [3] was about 3.21 and the pIC50 [4] was 2.89.

From publication PMC3823643 (Nature structural & molecular biology, 2013)
